According to the kinase profiling compilation of Christmann-Franck et al. (2016):

How the values were obtained:
Test in all cases: radiometric filter-binding kinase assay
ABL1 (human) = ABL1 (human) (UniProt P00519); settings: compound 100.0 µM; ATP 5 µM
BRSK1 (human) = BRSK1 (human) (UniProt Q8TDC3); settings: compound 100.0 µM; ATP 20 µM
BTK (human) = BTK (human) (UniProt Q06187); settings: compound 100.0 µM; ATP 50 µM
CAMKK2 (human) = CAMKK2 (human) (UniProt Q96RR4); settings: compound 100.0 µM; ATP 20 µM
CaMK1 (human) = CaMK1 (human) (UniProt Q14012); settings: compound 100.0 µM; ATP 50 µM
DAPK1 (human) = DAPK1 (human) (UniProt P53355); settings: compound 100.0 µM; ATP 5 µM
EPHA4 (human) = EPHA4 (human) (UniProt P54764); settings: compound 100.0 µM; ATP 50 µM
HIPK1 (human) = HIPK1 (human) (UniProt Q86Z02); settings: compound 100.0 µM; ATP 20 µM
INSR (human) = INSR (human) (UniProt P06213); settings: compound 100.0 µM; ATP 20 µM
IRAK4 (human) = IRAK4 (human) (UniProt Q9NWZ3); settings: compound 100.0 µM; ATP 20 µM
JAK2 JH1 JH2 (human) = JAK2 JH1 JH2 (human) (UniProt O60674); settings: compound 100.0 µM; ATP 5 µM
MAP2K1 (human) = MAP2K1 (human) (UniProt Q02750); settings: compound 100.0 µM; ATP 5 µM
MAP3K7 TAB1 (human) = MAP3K7 TAB1 (human) (UniProt Q15750+O43318); settings: compound 100.0 µM; ATP 5 µM
MAP3K9 (human) = MAP3K9 (human) (UniProt P80192); settings: compound 100.0 µM; ATP 20 µM
MAPK13 (human) = MAPK13 (human) (UniProt O15264); settings: compound 100.0 µM; ATP 5 µM
MAPK9 (human) = MAPK9 (human) (UniProt P45984); settings: compound 100.0 µM; ATP 20 µM
MAPKAPK3 (human) = MAPKAPK3 (human) (UniProt Q16644); settings: compound 100.0 µM; ATP 20 µM
MAPKAPK5 (human) = MAPKAPK5 (human) (UniProt Q8IW41); settings: compound 100.0 µM; ATP 20 µM
MARK1 (human) = MARK1 (human) (UniProt Q9P0L2); settings: compound 100.0 µM; ATP 20 µM
MKNK2 (human) = MKNK2 (human) (UniProt Q9HBH9); settings: compound 100.0 µM; ATP 50 µM
NEK2 (human) = NEK2 (human) (UniProt P51955); settings: compound 100.0 µM; ATP 50 µM
NTRK1 (human) = NTRK1 (human) (UniProt P04629); settings: compound 100.0 µM; ATP 20 µM
NUAK1 (human) = NUAK1 (human) (UniProt O60285); settings: compound 100.0 µM; ATP 20 µM
PAK7 (human) = PAK7 (human) (UniProt Q9P286); settings: compound 100.0 µM; ATP 20 µM
PDPK1 (human) = PDPK1 (human) (UniProt O15530); settings: compound 100.0 µM
PIM1 (human) = PIM1 (human) (UniProt P11309); settings: compound 100.0 µM; ATP 20 µM
PIM2 (human) = PIM2 (human) (UniProt Q9P1W9); settings: compound 100.0 µM; ATP 5 µM
PIM3 (human) = PIM3 (human) (UniProt Q86V86); settings: compound 100.0 µM; ATP 20 µM
PLK1 (human) = PLK1 (human) (UniProt P53350); settings: compound 100.0 µM; ATP 5 µM
PRKCG (human) = PRKCG (human) (UniProt P05129); settings: compound 100.0 µM; ATP 20 µM
RIPK2 (human) = RIPK2 (human) (UniProt O43353); settings: compound 100.0 µM; ATP 20 µM
RPS6KA5 KD1 KD2 (human) = RPS6KA5 KD1 KD2 (human) (UniProt O75582); settings: compound 100.0 µM; ATP 20 µM
STK16 (human) = STK16 (human) (UniProt O75716); settings: compound 100.0 µM; ATP 50 µM
STK3 (human) = STK3 (human) (UniProt Q13188); settings: compound 100.0 µM; ATP 20 µM
TEK (human) = TEK (human) (UniProt Q02763); settings: compound 100.0 µM; ATP 20 µM
YES1 (human) = YES1 (human) (UniProt P07947); settings: compound 100.0 µM; ATP 20 µM

HIPK1 (human), sequence (Q86Z02 whole entry, looked up): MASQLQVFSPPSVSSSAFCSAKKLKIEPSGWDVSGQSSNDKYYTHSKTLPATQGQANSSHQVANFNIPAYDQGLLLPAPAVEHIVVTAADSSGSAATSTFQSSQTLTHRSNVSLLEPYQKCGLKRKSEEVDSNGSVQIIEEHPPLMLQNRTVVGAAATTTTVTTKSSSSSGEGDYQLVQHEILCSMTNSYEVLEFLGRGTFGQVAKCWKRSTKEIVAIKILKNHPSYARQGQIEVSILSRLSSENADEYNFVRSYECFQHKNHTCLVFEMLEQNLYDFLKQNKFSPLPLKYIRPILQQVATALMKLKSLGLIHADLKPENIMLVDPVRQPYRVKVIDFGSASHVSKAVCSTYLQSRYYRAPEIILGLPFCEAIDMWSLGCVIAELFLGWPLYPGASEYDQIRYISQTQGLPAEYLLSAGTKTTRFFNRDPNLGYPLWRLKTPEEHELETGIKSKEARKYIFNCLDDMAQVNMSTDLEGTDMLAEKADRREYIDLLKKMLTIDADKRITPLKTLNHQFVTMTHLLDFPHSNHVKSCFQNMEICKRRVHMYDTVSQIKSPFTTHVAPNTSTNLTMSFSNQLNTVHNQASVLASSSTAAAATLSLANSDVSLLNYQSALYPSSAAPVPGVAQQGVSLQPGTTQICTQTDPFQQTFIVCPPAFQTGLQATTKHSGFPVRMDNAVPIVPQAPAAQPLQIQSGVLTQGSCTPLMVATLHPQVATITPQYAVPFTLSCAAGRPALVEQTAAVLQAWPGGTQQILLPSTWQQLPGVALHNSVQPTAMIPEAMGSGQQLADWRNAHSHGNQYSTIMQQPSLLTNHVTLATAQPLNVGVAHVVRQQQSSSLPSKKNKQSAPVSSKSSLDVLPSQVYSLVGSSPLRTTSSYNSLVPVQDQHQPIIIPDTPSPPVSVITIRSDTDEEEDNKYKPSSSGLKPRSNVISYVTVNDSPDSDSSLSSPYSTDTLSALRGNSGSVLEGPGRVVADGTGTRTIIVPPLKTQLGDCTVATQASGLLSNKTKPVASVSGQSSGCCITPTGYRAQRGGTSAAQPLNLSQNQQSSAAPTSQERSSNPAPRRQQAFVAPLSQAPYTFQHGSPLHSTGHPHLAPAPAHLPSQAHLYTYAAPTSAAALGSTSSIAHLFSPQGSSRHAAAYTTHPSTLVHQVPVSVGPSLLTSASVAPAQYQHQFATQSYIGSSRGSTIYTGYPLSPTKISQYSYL
MAP3K7 TAB1 (human), sequence (O43318 whole entry, looked up): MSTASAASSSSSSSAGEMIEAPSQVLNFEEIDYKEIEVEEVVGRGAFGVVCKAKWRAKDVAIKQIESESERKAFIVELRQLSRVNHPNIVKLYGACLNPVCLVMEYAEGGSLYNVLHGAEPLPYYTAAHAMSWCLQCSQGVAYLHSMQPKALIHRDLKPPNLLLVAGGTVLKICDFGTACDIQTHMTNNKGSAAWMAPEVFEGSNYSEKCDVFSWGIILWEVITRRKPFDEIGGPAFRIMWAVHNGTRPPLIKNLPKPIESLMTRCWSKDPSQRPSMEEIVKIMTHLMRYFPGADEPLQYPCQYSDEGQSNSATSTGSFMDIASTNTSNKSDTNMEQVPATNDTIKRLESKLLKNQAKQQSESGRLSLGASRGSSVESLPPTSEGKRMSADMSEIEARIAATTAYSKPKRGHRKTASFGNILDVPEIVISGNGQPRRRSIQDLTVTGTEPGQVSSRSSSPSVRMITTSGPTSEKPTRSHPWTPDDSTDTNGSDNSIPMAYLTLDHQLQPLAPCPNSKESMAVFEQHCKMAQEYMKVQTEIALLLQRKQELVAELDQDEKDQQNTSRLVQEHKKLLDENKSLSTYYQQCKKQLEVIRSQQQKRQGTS
MAP3K7 TAB1 (human), sequence (Q15750 whole entry, looked up): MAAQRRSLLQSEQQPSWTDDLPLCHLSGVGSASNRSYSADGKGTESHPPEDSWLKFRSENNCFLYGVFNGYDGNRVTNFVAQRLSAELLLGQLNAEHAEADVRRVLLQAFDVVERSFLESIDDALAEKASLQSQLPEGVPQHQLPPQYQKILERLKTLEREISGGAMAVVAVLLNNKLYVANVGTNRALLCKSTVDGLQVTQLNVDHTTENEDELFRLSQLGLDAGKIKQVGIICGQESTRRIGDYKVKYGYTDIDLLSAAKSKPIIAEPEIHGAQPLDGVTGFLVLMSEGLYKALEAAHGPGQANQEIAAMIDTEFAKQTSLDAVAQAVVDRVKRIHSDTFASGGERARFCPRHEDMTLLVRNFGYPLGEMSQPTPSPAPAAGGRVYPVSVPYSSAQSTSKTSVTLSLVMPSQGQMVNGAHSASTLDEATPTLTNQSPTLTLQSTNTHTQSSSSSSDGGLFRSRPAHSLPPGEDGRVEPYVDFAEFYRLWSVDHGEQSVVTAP
MAPK13 (human), sequence (O15264 whole entry, looked up): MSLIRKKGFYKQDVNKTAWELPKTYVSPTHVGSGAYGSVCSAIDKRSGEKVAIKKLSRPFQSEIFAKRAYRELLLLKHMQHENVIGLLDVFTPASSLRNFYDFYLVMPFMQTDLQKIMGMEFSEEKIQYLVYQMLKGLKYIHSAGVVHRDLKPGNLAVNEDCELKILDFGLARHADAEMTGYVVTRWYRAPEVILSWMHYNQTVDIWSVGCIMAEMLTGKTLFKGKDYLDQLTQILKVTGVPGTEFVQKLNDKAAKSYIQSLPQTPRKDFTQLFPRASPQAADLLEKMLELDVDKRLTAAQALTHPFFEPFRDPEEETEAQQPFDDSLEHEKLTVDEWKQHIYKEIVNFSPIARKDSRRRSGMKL
PIM1 (human), sequence (P11309 whole entry, looked up): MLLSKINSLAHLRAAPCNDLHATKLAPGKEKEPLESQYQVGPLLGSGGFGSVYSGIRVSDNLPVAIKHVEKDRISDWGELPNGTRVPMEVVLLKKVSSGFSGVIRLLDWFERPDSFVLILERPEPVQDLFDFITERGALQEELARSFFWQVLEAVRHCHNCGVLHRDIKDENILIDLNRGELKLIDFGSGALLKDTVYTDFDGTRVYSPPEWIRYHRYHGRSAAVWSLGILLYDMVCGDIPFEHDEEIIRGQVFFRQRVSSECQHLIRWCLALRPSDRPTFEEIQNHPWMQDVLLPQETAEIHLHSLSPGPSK
MAP3K9 (human), sequence (P80192 whole entry, looked up): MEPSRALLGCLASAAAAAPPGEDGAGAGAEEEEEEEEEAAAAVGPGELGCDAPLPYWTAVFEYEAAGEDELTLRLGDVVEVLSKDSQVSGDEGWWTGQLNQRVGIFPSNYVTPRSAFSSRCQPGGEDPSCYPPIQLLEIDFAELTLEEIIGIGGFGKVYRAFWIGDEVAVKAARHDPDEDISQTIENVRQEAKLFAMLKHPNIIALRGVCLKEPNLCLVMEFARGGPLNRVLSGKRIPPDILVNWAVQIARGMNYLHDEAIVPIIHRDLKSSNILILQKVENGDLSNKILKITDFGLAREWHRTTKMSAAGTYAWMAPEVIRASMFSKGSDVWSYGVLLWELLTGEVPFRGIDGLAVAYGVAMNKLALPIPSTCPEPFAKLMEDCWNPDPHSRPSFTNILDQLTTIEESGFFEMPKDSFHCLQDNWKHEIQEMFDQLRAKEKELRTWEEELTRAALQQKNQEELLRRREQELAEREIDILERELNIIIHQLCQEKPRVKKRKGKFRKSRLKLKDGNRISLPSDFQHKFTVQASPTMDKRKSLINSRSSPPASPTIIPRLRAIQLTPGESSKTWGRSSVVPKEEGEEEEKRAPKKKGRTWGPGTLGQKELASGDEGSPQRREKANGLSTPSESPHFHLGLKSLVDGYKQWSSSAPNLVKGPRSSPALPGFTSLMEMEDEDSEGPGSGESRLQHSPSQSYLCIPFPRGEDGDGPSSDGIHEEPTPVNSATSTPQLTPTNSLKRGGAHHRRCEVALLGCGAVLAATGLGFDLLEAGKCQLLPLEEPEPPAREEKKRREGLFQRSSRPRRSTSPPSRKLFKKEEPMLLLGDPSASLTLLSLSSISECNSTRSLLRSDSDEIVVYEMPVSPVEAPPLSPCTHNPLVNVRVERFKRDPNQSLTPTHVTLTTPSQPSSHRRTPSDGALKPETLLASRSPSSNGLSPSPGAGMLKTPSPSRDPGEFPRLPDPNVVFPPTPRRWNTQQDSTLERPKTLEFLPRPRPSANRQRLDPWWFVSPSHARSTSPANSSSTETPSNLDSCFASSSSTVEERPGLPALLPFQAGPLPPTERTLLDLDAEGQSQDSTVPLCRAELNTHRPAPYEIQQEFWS
CAMKK2 (human), sequence (Q96RR4 whole entry, looked up): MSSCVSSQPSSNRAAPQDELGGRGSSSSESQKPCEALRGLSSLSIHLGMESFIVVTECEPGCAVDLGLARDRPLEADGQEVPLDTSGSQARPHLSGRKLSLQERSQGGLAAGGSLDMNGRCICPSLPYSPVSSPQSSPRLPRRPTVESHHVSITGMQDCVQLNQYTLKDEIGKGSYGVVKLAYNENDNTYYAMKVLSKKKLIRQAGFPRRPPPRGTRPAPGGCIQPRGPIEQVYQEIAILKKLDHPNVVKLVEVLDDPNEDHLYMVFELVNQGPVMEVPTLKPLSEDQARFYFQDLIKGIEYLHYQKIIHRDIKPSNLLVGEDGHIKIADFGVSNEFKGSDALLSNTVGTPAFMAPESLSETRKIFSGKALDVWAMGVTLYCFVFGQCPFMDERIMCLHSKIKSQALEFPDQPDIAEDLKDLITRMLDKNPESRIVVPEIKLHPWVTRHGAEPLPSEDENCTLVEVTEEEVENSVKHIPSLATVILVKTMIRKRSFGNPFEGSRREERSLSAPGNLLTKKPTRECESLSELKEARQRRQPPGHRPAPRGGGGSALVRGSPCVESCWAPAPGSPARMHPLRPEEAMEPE

Structure (SMILES): O=c1c(NC(=S)NCc2ccccc2)cnc2[nH]ccn12
- inhibition (ABL1 (human)): 0%
- inhibition (BRSK1 (human)): 2%
- inhibition (BTK (human)): 16%
- inhibition (CAMKK2 (human)): 0%
- inhibition (CaMK1 (human)): 6%
- inhibition (DAPK1 (human)): 0%
- inhibition (EPHA4 (human)): 15%
- inhibition (HIPK1 (human)): 0%
- inhibition (INSR (human)): 0%
- inhibition (IRAK4 (human)): 6%
- inhibition (JAK2 JH1 JH2 (human)): 0%
- inhibition (MAP2K1 (human)): 57%
- inhibition (MAP3K7 TAB1 (human)): 20%
- inhibition (MAP3K9 (human)): 0%
- inhibition (MAPK13 (human)): 0%
- inhibition (MAPK9 (human)): 7%
- inhibition (MAPKAPK3 (human)): 21%
- inhibition (MAPKAPK5 (human)): 0%
- inhibition (MARK1 (human)): 13%
- inhibition (MKNK2 (human)): 13%
- inhibition (NEK2 (human)): 4%
- inhibition (NTRK1 (human)): 0%
- inhibition (NUAK1 (human)): 0%
- inhibition (PAK7 (human)): 0%
- inhibition (PDPK1 (human); ATP 20 µM): 0%
- inhibition (PDPK1 (human); ATP 50 µM): 0%
- inhibition (PIM1 (human)): 0%
- inhibition (PIM2 (human)): 4%
- inhibition (PIM3 (human)): 0%
- inhibition (PLK1 (human)): 0%
- inhibition (PRKCG (human)): 0%
- inhibition (RIPK2 (human)): 0%
- inhibition (RPS6KA5 KD1 KD2 (human)): 0%
- inhibition (STK16 (human)): 0%
- inhibition (STK3 (human)): 3%
- inhibition (TEK (human)): 0%
- inhibition (YES1 (human)): 0%

Structure (SMILES): O=C(c1cccc(-c2cc3c(=O)[nH]cnc3s2)c1)N1CCOCC1
- inhibition (ABL1 (human)): 15%
- inhibition (BRSK1 (human)): 38%
- inhibition (BTK (human)): 46%
- inhibition (CAMKK2 (human)): 0%
- inhibition (CaMK1 (human)): 75%
- inhibition (DAPK1 (human)): 0%
- inhibition (EPHA4 (human)): 0%
- inhibition (HIPK1 (human)): 10%
- inhibition (INSR (human)): 0%
- inhibition (IRAK4 (human)): 28%
- inhibition (JAK2 JH1 JH2 (human)): 75%
- inhibition (MAP2K1 (human)): 31%
- inhibition (MAP3K7 TAB1 (human)): 78%
- inhibition (MAP3K9 (human)): 0%
- inhibition (MAPK13 (human)): 0%
- inhibition (MAPK9 (human)): 0%
- inhibition (MAPKAPK3 (human)): 61%
- inhibition (MAPKAPK5 (human)): 0%
- inhibition (MARK1 (human)): 31%
- inhibition (MKNK2 (human)): 30%
- inhibition (NEK2 (human)): 2%
- inhibition (NTRK1 (human)): 41%
- inhibition (NUAK1 (human)): 0%
- inhibition (PAK7 (human)): 0%
- inhibition (PDPK1 (human); ATP 20 µM): 16%
- inhibition (PDPK1 (human); ATP 50 µM): 53%
- inhibition (PIM1 (human)): 61%
- inhibition (PIM2 (human)): 13%
- inhibition (PIM3 (human)): 51%
- inhibition (PLK1 (human)): 0%
- inhibition (PRKCG (human)): 16%
- inhibition (RIPK2 (human)): 12%
- inhibition (RPS6KA5 KD1 KD2 (human)): 24%
- inhibition (STK16 (human)): 4%
- inhibition (STK3 (human)): 27%
- inhibition (TEK (human)): 0%
- inhibition (YES1 (human)): 0%

Structure (SMILES): Nc1cnc2c(-c3c(F)cccc3F)cccn2c1=O
- inhibition (ABL1 (human)): 40%
- inhibition (BRSK1 (human)): 22%
- inhibition (BTK (human)): 67%
- inhibition (CAMKK2 (human)): 0%
- inhibition (CaMK1 (human)): 60%
- inhibition (DAPK1 (human)): 0%
- inhibition (EPHA4 (human)): 25%
- inhibition (HIPK1 (human)): 11%
- inhibition (INSR (human)): 88%
- inhibition (IRAK4 (human)): 31%
- inhibition (JAK2 JH1 JH2 (human)): 89%
- inhibition (MAP2K1 (human)): 72%
- inhibition (MAP3K7 TAB1 (human)): 80%
- inhibition (MAP3K9 (human)): 79%
- inhibition (MAPK13 (human)): 0%
- inhibition (MAPK9 (human)): 17%
- inhibition (MAPKAPK3 (human)): 54%
- inhibition (MAPKAPK5 (human)): 83%
- inhibition (MARK1 (human)): 49%
- inhibition (MKNK2 (human)): 6%
- inhibition (NEK2 (human)): 0%
- inhibition (NTRK1 (human)): 88%
- inhibition (NUAK1 (human)): 76%
- inhibition (PAK7 (human)): 35%
- inhibition (PDPK1 (human); ATP 20 µM): 20%
- inhibition (PDPK1 (human); ATP 50 µM): 57%
- inhibition (PIM1 (human)): 31%
- inhibition (PIM2 (human)): 21%
- inhibition (PIM3 (human)): 35%
- inhibition (PLK1 (human)): 0%
- inhibition (PRKCG (human)): 25%
- inhibition (RIPK2 (human)): 3%
- inhibition (RPS6KA5 KD1 KD2 (human)): 33%
- inhibition (STK16 (human)): 3%
- inhibition (STK3 (human)): 64%
- inhibition (TEK (human)): 42%
- inhibition (YES1 (human)): 57%
